Assay results reported in patent US20190002452A1 (GUANGZHOU HENOVCOM BIOSCIENCE CO., LTD, priority 2016, published 2019).

Biological target: T1, human farnesol receptor protein hFXR (Homo sapiens, UniProt Q96RI1)
T1 construct: hexahistidine (His6)
T1 sequence (Q96RI1 1-486): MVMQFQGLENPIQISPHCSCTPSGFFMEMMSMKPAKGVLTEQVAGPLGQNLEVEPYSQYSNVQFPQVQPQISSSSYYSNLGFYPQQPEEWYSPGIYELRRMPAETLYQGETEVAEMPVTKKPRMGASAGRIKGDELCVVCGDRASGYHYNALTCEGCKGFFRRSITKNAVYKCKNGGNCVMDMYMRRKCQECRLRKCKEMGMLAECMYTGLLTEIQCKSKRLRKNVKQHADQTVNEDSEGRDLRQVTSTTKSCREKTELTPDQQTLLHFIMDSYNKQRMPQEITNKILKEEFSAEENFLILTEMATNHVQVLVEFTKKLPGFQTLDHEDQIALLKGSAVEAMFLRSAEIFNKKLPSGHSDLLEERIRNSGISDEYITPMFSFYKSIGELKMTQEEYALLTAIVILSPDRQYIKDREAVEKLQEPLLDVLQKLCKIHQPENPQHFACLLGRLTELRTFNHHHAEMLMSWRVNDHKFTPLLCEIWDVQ
Assay: AlphaScreen assay of FXR agonist activity in vitro: effect on binding between human farnesol receptor protein and its coactivator (SRC1-2)
Format: biochemical
Conditions: hFXR 100 nM, peptide bSRC1-2 50 nM, 2 hr incubation at room temperature
Procedure: FXR agonist activity in vitro for the chemicals prepared in the above examples is measured.
AlphaScreen-based assays are performed with a hexahistidine detection kit manufactured by Perkins-Elmer, for measuring the effect of chemical compounds on the binding between human farnesol receptor protein and its coactivator (SRC1-2), the method is shown as follows:
1) Preparing a mixture comprising human farnesol receptor protein hFXR (100 nM, 15 μL/well), peptide bSRC1-2 (50 nM, 15 μL/well), 10× AlphaScreen buffer solution (15 μL/well and DI water (60 μL/well), and then transferring 105 μL/well of the mixture to a 96-well plate; 2) Diluting the chemicals prepared in the above examples by twice gradient 12×, with 15 μL/well; 3) Adding donor beads and acceptor beads, 30 μL/well in total; (attention: the beads are light-sensitive) 4) Incubating in dark at room temperature for 2 hr; 5) Transferring 40 μL/well of the mixture to a 384-well plate with 3 replicates, and then centrifuging at 1000 rpm for 1 min, to make liquid mixed well underneath the wells. (attention: photopathic operation); 6) In a dark room, reading the plate (by Homogeneous luminescent immunoassay system) to obtain EC50 with a GraphPad Prism5 software.

Row | SMILES | EC50 [nM]
1 | O=C(O)c1cc(F)c2nc(N3CCC4(CC(OCc5c(-c6c(Cl)cccc6Cl)noc5C5CC5)C4)C3)sc2c1 (centres unmarked) [Example 13, 2-(2-((5-cyclopropyl-3-(2,6-dichlorophenyl)isoxazol-4-yl)methoxy)-6-azaspiro[3.4]octan-6-yl)-4-flurobenzo[d]thiazole-6-carboxylic Acid] | 100 to 1000
2 | O=C(O)c1ccc2nc(N3CCC4(CC(OCc5c(-c6c(Cl)cccc6Cl)noc5C5CC5)C4)C3)oc2c1 (centres unmarked) [Example 14, 2-(2-((5-cyclopropyl-3-(2,6-dichlorophenyl)isoxazol-4-yl)methoxy)-6-azaspiro[3.4]octan-6-yl) benzo[d]oxazole-6-carboxylic Acid] | < 100
3 | C[C@@H]1CC2(CC(OCc3c(-c4c(Cl)cccc4Cl)noc3C3CC3)C2)CN1c1nc2ccc(C(=O)O)cc2s1 (stereo partly drawn) [Example 15, (R)-2-(2-((5-cyclopropyl-3-(2,6-dichlorophenyl)isoxazol-4-yl)methoxy)-7-methyl-6-azaspiro[3.4]octan-6-yl) benzo[d]thiazole-6-carboxylic Acid] | 100 to 1000
4 | O=C(O)c1ccc2nc(N3CC4(CC(OCc5c(-c6c(Cl)cccc6Cl)noc5C5CC5)C4)C[C@H]3CF)sc2c1 (stereo partly drawn) [Example 16, (S)-2-(2-((5-5-cyclopropyl-3-(2,6-dichlorophenyl)isoxazol-4-yl)methoxy)-7-(fluromethyl)-6-azaspiro[3.4]octan-6-yl) benzo[d]thiazole-6-carboxylic Acid] | 100 to 1000
5 | C[C@@H]1CC2(CC(OCc3c(-c4c(Cl)cccc4Cl)noc3C3CC3)C2)CN1c1nc2c(F)cc(C(=O)O)cc2s1 (some centres unmarked) [Example 17] | 100 to 1000
6 | COc1cc(C(=O)O)cc2sc(N3CC4(CC(OCc5c(-c6c(Cl)cccc6Cl)noc5C5CC5)C4)C[C@H]3C)nc12 (some centres unmarked) [Example 18] | 100 to 1000
7 | O=C(O)c1cc(F)c2nc(N3CC4(CC(OCc5c(-c6c(Cl)cccc6Cl)noc5C5CC5)C4)C[C@H]3CF)sc2c1 (stereo partly drawn) [Example 19, (S)-2-(2-((5-cyclopropyl-3-(2,6-dichlorophenyl)isoxazol-4-yl)methoxy)-7-(fluromethyl)-6-azaspiro[3.4]octan-6-yl)-4-flurobenzo[d]thiazole-6-carboxylic Acid] | 100 to 1000
8 | O=C(O)c1ccc2nc(N3CC4(CC(OCc5c(-c6c(Cl)cccc6Cl)noc5C5CC5)C4)C[C@H]3CF)oc2c1 (stereo partly drawn) [Example 21, (S)-2-(2-((5-cyclopropyl-3-(2,6-dichlorophenyl)isoxazol-4-yl)methoxy)-7-(fluromethyl)-6-azaspiro[3.4]octan-6-yl) benzo[d]oxazole-6-carboxylic Acid] | 100 to 1000
9 | O=C(O)c1ccc2nc(N3Cc4ccc(OCc5c(-c6c(Cl)cccc6Cl)noc5C5CC5)cc4C3)sc2c1 [Example 22, 2-(5-((5-cyclopropyl-3-(2,6-dichlorophenyl)isoxazol-4-yl)methoxy)isoindolin-2-yl) benzo[d]thiazole-6-carboxylic Acid] | < 100
10 | O=C(O)c1ccc2nc(N3CCc4cc(OCc5c(-c6c(Cl)cccc6Cl)noc5C5CC5)ccc4C3)sc2c1 [Example 23, 2-(6-((5-cyclopropyl-3-(2,6-dichlorophenyl)isoxazol-4-yl)methoxy)-3,4-dihydroisoquinolin-2 (1H)-yl) benzo[d]thiazole-6-carboxylic Acid] | < 100
11 | O=C(O)c1ccc2nc(N3CCc4ccc(OCc5c(-c6c(Cl)cccc6Cl)noc5C5CC5)cc4C3)sc2c1 [Example 24, 2-(7-((5-cyclopropyl-3-(2,6-dichlorophenyl)isoxazol-4-yl)methoxy)-3,4-dihydroisoquinolin-2(1H)-yl) benzo[d]thiazole-6-carboxylic Acid] | 100 to 1000
12 | O=C(O)c1ccc2nc(N3CC4CCC(OCc5c(-c6c(Cl)cccc6Cl)noc5C5CC5)CC4C3)sc2c1 (centres unmarked) [Example 25, 2-(5-((5-cyclopropyl-3-(2,6-dichlorophenyl)isoxazol-4-yl)methoxy)hexahydro-1H-isoindol-2(3H)-yl) benzo[d]thiazole-6-carboxylic Acid] | 100 to 1000
13 | O=C(O)c1ccc2nc(N3CC4CC(OCc5c(-c6c(Cl)cccc6Cl)noc5C5CC5)CC4C3)sc2c1 (centres unmarked) [Example 26, 2-(5-((5-cyclopropyl-3-(2,6-dichlorophenyl)isoxazol-4-yl)methoxy)hexahydrocyclopenta[c]pyrrol-2(1H)-yl) benzo[d]thiazole-6-carboxylic Acid] | < 100
14 | O=C(O)c1ccc2nc(N3CC4CCCC(C3)C4OCc3c(-c4c(Cl)cccc4Cl)noc3C3CC3)sc2c1 (centres unmarked) [Example 28, 2-(9-((5-cyclopropyl-3-(2,6-dichlorophenyl)isoxazol-4-yl)methoxy)-3-azazbicyclo[3.3.1]nonan-3-yl) benzo[d]thiazole-6-carboxylic Acid] | < 100
15 | O=C(O)c1cc2cc(N3CCC4(CC(OCc5c(-c6c(Cl)cccc6Cl)noc5C5CC5)C4)C3)ccc2o1 (centres unmarked) [Example 29] | < 100
16 | O=C(O)c1cc2ccc(N3CCC4(CC(OCc5c(-c6c(Cl)cccc6Cl)noc5C5CC5)C4)C3)cc2s1 (centres unmarked) [Example 30, 6-(2-((5-cyclopropyl-3-(2,6-dichlorophenyl)isoxazol-4-yl)methoxy)-6-azaspiro[3.4]octan-6-yl) benzothiophene-2-carboxylic Acid] | 100 to 1000
17 | O=C(O)c1nsc2cc(N3CCC4(CC(OCc5c(-c6c(Cl)cccc6Cl)noc5C5CC5)C4)C3)ccc12 (centres unmarked) [Example 31, 6-(2-((5-cyclopropyl-3-(2,6-dichlorophenyl)isoxazol-4-yl)methoxy)-6-azaspiro[3.4]octan-6-yl) benzo[d]isothiazole-3-carboxylic Acid] | < 100
18 | Cn1c(C(=O)O)cc2cc(N3CCC4(CC(OCc5c(-c6c(Cl)cccc6Cl)noc5C5CC5)C4)C3)ccc21 (centres unmarked) [Example 32, 5-(2-((5-cyclopropyl-3-(2,6-dichlorophenyl)isoxazol-4-yl)methoxy)-6-azaspiro[3.4]octan-6-yl)-1-methyl-1H-indole-2-carboxylic Acid] | 100 to 1000
19 | Cn1cc(C(=O)O)c2ccc(N3CCC4(CC(OCc5c(-c6c(Cl)cccc6Cl)noc5C5CC5)C4)C3)cc21 (centres unmarked) [Example 33, 6-(2-((5-cyclopropyl-3-(2,6-dichlorophenyl)isoxazol-4-yl)methoxy)-6-azaspiro[3.4]octan-6-yl)-1-methyl-1H-indole-3-carboxylic Acid] | 100 to 1000
20 | O=C(O)c1ccc2nc(N3CCC4(CC(OCc5c(-c6c(Cl)cccc6Cl)noc5C5CC5)C4)C3)ccc2c1 (centres unmarked) [Example 34, 2-(2-((5-cyclopropyl-3-(2,6-dichlorophenyl)isoxazol-4-yl)methoxy)-6-azaspiro[3.4]octan-6-yl)quinolin-6-carboxylic Acid] | 100 to 1000
21 | O=C(O)c1cnc(N2CCC3(CC(OCc4c(-c5c(Cl)cccc5Cl)noc4C4CC4)C3)C2)cn1 (centres unmarked) [Example 35, 5-(2-((5-cyclopropyl-3-(2,6-dichlorophenyl)isoxazol-4-yl)methoxy)-6-azaspiro[3.4]octan-6-yl)pyrazine-2-carboxylic Acid] | < 100
22 | O=C(O)c1cccc(N2CCC3(CC(OCc4c(-c5c(Cl)cccc5Cl)noc4C4CC4)C3)C2)n1 (centres unmarked) [Example 36, 6-(2-((5-cyclopropyl-3-(2,6-dichlorophenyl)isoxazol-4-yl)methoxy)-6-azaspiro[3.4]octan-6-yl)pyridine-2-carboxylic Acid] | 100 to 1000
23 | O=C(O)c1ccc(N2CCC3(CC(OCc4c(-c5c(Cl)cccc5Cl)noc4C4CC4)C3)C2)c(F)c1 (centres unmarked) [Example 37, 4-(2-((5-cyclopropyl-3-(2,6-dichlorophenyl)isoxazol-4-yl)methoxy)-6-azaspiro[3.4]octan-6-yl)-3-fluorobenzoic Acid] | 100 to 1000
